From patent US8604217B2, “Compound, a process for its preparation, a pharmaceutical composition, use of a compound, a method for modulating or regulating serine/threonine kinases and a serine/threonine kinases modulating agent” (Selvita S.A., priority 2009, dated 2013)

What was measured:
Test in all cases: KinaseProfiler kinase panel
[1] = target: STK33(h) (Homo sapiens (Human), UniProt Q9BYT3); assay type: biochemical
[2] = target: SGK3(h) (Homo sapiens (Human), UniProt Q96BR1); assay type: biochemical
[3] = target: PDGFRα(h) (Homo sapiens (Human), UniProt P16234); assay type: biochemical
[4] = target: MLK1(h) (Homo sapiens (Human), UniProt P80192); assay type: biochemical
MLK1(h), sequence (P80192 whole entry): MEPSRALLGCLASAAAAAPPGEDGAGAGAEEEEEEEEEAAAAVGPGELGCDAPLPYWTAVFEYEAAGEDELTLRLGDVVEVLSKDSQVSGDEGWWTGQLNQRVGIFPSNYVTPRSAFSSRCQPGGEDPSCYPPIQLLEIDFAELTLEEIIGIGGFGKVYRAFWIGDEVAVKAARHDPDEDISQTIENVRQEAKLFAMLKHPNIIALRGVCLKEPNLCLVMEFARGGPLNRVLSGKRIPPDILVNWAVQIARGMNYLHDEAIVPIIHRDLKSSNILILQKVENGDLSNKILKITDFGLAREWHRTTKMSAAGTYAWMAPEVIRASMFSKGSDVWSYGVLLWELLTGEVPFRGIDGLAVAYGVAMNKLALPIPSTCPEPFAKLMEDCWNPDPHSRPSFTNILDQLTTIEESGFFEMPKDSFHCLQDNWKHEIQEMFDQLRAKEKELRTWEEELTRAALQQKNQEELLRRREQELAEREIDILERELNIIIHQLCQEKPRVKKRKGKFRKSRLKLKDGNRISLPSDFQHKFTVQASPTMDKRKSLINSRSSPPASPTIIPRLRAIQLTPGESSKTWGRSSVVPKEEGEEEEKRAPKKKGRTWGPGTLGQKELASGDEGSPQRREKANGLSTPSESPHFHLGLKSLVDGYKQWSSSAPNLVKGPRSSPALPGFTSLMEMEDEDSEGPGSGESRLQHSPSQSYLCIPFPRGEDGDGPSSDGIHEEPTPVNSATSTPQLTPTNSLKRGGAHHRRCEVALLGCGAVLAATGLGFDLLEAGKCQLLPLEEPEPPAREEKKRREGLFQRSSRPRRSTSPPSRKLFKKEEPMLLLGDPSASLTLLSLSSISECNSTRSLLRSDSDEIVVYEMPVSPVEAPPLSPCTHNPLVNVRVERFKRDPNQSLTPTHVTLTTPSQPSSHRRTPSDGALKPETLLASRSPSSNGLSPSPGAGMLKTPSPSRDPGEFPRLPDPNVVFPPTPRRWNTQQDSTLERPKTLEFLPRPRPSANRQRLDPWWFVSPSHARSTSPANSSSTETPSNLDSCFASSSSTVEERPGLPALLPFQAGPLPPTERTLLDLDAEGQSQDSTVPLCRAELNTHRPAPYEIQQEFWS

[5] = target: CLK2(h) (Homo sapiens (Human), UniProt P49760); assay type: biochemical
[6] = target: CDK5/p25(h) (Homo sapiens (Human), UniProt Q00535); assay type: biochemical
[7] = target: CHK2(R145W)(h) (Homo sapiens (Human), UniProt O96017, R145W); assay type: biochemical
[8] = target: PDGFRβ(h) (Homo sapiens (Human), UniProt P09619); assay type: biochemical
PDGFRβ(h), sequence (P09619 33-1106): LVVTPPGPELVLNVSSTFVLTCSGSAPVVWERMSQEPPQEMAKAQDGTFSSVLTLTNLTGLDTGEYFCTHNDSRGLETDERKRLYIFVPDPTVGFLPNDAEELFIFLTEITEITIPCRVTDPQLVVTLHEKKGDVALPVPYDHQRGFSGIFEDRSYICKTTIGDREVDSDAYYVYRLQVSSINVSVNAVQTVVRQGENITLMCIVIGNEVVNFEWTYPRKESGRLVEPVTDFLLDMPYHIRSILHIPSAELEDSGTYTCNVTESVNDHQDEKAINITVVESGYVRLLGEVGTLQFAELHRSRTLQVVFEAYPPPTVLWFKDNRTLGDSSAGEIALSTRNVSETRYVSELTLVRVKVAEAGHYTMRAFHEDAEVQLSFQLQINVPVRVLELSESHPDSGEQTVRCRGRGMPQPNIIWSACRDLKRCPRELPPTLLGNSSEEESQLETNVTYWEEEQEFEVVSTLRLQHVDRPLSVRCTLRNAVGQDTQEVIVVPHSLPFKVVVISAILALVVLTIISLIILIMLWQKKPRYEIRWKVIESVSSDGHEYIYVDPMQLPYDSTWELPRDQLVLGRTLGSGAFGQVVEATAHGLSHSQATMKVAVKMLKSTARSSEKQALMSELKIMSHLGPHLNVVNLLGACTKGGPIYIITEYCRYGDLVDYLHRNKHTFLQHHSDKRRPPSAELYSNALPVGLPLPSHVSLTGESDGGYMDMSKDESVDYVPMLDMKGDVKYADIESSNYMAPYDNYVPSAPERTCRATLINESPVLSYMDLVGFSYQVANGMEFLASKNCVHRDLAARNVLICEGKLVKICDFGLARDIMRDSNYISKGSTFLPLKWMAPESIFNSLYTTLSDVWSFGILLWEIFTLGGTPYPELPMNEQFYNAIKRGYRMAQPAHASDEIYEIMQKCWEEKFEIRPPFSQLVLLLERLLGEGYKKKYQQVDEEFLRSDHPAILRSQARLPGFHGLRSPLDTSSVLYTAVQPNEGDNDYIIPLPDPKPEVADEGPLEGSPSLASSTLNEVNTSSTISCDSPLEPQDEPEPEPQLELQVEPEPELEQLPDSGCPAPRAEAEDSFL

[9] = target: ROCK-II(r) (Rattus norvegicus (Rat), UniProt Q62868); assay type: biochemical
[10] = target: JAK3(h) (Homo sapiens (Human), UniProt P52333); assay type: biochemical
[11] = target: Aurora-A(h) (Homo sapiens (Human), UniProt O14965); assay type: biochemical
[12] = target: cKit(D816H)(h) (Homo sapiens (Human), UniProt P10721, D816H); assay type: biochemical
[13] = target: ZIPK(h) (Homo sapiens (Human), UniProt O43293); assay type: biochemical
ZIPK(h), sequence (O43293 whole entry): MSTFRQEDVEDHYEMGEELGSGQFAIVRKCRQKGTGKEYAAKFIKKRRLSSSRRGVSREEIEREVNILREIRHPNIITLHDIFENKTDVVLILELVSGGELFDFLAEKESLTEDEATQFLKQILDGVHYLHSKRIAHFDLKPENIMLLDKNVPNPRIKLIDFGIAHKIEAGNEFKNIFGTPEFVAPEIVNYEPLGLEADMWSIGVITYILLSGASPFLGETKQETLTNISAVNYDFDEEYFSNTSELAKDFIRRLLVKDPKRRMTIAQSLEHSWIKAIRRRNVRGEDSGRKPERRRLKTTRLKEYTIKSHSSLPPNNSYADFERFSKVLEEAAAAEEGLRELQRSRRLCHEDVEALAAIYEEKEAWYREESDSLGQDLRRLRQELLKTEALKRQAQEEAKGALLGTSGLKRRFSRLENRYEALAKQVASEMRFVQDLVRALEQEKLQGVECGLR

[14] = target: CaMKI(h) (Homo sapiens (Human), UniProt Q14012); assay type: biochemical
[15] = test system: MLCK(h); assay type: biochemical, human; conditions: 1 μM
[16] = target: cKit(V654A)(h) (Homo sapiens (Human), UniProt P10721, V654A); assay type: biochemical
[17] = target: EGFR(T790M)(h) (Homo sapiens (Human), UniProt P00533, T790M); assay type: biochemical
[18] = target: Tie2(Y897S)(h) (Homo sapiens (Human), UniProt Q02763, Y897S); assay type: biochemical
[19] = target: SGK(h) (Homo sapiens (Human), UniProt O00141); assay type: biochemical
[20] = target: Lyn(h) (Homo sapiens (Human), UniProt P07948); assay type: biochemical
[21] = target: IRR(h) (Homo sapiens (Human), UniProt P14616); assay type: biochemical
[22] = target: RIPK2(h) (Homo sapiens (Human), UniProt O43353); assay type: biochemical
[23] = target: AMPKα1(h) (Homo sapiens (Human), UniProt Q13131); assay type: biochemical
[24] = target: PKCε(h) (Homo sapiens (Human), UniProt Q02156); assay type: biochemical
[25] = target: CDK2/cyclinE(h) (Homo sapiens (Human), UniProt P24941); assay type: biochemical
[26] = target: EGFR(h) (Homo sapiens (Human), UniProt P00533); assay type: biochemical
[27] = target: CDK5/p35(h) (Homo sapiens (Human), UniProt Q00535); assay type: biochemical
[28] = target: CHK1(h) (Homo sapiens (Human), UniProt O14757); assay type: biochemical
[29] = target: CaMKIIβ(h) (Homo sapiens (Human), UniProt Q13554); assay type: biochemical
[30] = target: Met(M1268T)(h) (Homo sapiens (Human), UniProt P08581, M1268T); assay type: biochemical
Met(M1268T)(h), sequence (P08581 other isoform, or with tags, fused parts or gaps M1268T): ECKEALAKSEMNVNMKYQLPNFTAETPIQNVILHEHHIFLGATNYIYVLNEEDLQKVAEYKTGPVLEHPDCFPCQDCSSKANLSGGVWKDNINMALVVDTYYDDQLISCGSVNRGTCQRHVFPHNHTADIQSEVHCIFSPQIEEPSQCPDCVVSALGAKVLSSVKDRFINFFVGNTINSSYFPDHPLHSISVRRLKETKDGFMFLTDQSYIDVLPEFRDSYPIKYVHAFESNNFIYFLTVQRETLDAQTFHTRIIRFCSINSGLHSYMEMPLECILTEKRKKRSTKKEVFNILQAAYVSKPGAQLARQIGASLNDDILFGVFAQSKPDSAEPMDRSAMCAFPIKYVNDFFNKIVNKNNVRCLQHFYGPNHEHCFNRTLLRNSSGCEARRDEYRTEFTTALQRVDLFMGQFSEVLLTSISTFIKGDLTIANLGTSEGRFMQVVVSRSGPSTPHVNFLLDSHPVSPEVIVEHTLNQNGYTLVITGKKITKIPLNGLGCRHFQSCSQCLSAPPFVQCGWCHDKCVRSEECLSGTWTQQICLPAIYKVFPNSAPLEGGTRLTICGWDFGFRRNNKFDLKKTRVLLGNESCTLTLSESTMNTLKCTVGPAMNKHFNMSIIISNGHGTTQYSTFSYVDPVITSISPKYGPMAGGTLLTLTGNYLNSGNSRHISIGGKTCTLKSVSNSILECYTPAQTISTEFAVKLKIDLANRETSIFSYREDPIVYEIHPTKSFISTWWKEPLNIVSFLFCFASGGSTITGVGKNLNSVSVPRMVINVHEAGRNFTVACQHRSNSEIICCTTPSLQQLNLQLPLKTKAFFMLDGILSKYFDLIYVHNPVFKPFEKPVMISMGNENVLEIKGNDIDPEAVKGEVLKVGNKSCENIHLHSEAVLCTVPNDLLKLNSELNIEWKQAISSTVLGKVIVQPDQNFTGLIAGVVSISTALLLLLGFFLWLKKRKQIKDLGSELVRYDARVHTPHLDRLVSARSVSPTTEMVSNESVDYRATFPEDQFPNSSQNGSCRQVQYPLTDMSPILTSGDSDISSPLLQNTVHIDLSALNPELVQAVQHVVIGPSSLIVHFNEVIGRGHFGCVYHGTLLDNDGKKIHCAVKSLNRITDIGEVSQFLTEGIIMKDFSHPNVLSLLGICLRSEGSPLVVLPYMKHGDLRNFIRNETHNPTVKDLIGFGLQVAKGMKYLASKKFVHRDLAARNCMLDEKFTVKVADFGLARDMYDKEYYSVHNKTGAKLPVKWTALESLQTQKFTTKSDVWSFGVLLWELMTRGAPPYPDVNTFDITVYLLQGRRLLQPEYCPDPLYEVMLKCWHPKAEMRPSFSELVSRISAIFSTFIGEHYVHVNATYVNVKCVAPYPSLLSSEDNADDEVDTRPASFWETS

[31] = target: CK1γ1(h) (Homo sapiens (Human), UniProt Q9HCP0); assay type: biochemical
[32] = target: MKK7β(h) (Homo sapiens (Human), UniProt O14733); assay type: biochemical
[33] = target: CDK2/cyclinA(h) (Homo sapiens (Human), UniProt P24941); assay type: biochemical
[34] = target: MSK1(h) (Homo sapiens (Human), UniProt O75582); assay type: biochemical
[35] = target: JNK3(h) (Homo sapiens (Human), UniProt P53779); assay type: biochemical
JNK3(h), sequence (P53779 whole entry): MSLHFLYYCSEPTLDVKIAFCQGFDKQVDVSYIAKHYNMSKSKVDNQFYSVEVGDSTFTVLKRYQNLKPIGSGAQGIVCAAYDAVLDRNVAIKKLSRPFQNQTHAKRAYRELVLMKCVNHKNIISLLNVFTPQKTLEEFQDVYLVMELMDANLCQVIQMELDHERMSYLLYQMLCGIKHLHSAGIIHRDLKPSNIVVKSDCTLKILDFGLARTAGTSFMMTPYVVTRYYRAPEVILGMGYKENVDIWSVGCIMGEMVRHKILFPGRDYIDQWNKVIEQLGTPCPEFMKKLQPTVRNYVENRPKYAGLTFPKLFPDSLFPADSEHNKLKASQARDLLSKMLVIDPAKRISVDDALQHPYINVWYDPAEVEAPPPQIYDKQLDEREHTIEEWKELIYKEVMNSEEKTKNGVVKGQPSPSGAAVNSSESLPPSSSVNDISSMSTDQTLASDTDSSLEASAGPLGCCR

[36] = target: FGFR3(h) (Homo sapiens (Human), UniProt P22607); assay type: biochemical
[37] = target: MAPK1(h) (Homo sapiens (Human), UniProt P27361); assay type: biochemical
[38] = target: PRK2(h) (Homo sapiens (Human), UniProt Q16513); assay type: biochemical
[39] = target: PAK3(h) (Homo sapiens (Human), UniProt O75914); assay type: biochemical
PAK3(h), sequence (O75914 whole entry): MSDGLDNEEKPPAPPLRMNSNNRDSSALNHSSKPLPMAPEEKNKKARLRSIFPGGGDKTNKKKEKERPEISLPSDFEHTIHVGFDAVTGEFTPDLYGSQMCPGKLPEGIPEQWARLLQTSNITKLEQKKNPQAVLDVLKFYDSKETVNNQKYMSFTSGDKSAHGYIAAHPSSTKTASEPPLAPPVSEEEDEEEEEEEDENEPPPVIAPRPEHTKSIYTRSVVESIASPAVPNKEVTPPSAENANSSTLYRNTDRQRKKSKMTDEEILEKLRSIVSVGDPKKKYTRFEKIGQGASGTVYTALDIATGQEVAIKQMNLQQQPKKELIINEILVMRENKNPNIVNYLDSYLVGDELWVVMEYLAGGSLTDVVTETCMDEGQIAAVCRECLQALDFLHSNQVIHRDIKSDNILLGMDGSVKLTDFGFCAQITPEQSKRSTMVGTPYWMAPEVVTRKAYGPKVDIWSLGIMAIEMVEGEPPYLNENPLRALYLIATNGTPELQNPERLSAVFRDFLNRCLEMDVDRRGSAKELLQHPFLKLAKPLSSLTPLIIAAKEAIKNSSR

[40] = target: PKG1α(h) (Homo sapiens (Human), UniProt Q13976); assay type: biochemical

`CCn1c(N2CCNCC2)nc2c(Br)c(Br)c(Br)c(Br)c21` [Compound 416, 4,5,6,7-tetrabromo-1-ethyl-2-(piperazin-1-yl)-1H-benzo[d]imidazole] showed a remaining activity at 1 µM [1] of 66%, a remaining activity at 1 µM [2] of 92% and a remaining activity at 1 µM [3] of 98%. For the same compound, the remaining activity at 1 µM [4] was 87%, the remaining activity at 1 µM [5] was 2% and the remaining activity at 1 µM [6] was 1%. For the same compound, the remaining activity at 1 µM [7] was 76%, the remaining activity at 1 µM [8] was 102% and the remaining activity at 1 µM [9] was 71%. The remaining activity at 1 µM [10] was 74%, the remaining activity at 1 µM [11] was 125% and the remaining activity at 1 µM [12] was 6%. The remaining activity at 1 µM [13] was 95%, the remaining activity at 1 µM [14] was 89% and the “% remaining activity” value [15] was 88%. The remaining activity at 1 µM [16] was 36%, the remaining activity at 1 µM [17] was 28% and the remaining activity at 1 µM [18] was 91%. The remaining activity at 1 µM [19] was 90%, the remaining activity at 1 µM [20] was 65% and the remaining activity at 1 µM [21] was 91%. It also gave a remaining activity at 1 µM [22] of 79%, a remaining activity at 1 µM [23] of 82% and a remaining activity at 1 µM [24] of 104%. For the same compound, the remaining activity at 1 µM [25] was 6%, the remaining activity at 1 µM [26] was 89% and the remaining activity at 1 µM [27] was 2%. For the same compound, the remaining activity at 1 µM [28] was 113%, the remaining activity at 1 µM [29] was 67% and the remaining activity at 1 µM [30] was 70%. The remaining activity at 1 µM [31] was 83%, the remaining activity at 1 µM [32] was 95% and the remaining activity at 1 µM [33] was 7%. It also gave a remaining activity at 1 µM [34] of 54%, a remaining activity at 1 µM [35] of 87% and a remaining activity at 1 µM [36] of 105%. For the same compound, the remaining activity at 1 µM [37] was 94%, the remaining activity at 1 µM [38] was 56% and the remaining activity at 1 µM [39] was 100%. For the same compound, the remaining activity at 1 µM [40] was 7%.
